Assay results published in a melting point compilation (Tetko et al.; mined from patent text by program, amines drawn as free bases though some values may be those of a salt).

| SMILES | melting point |
| --- | --- |
| CC(=O)c1ccc(F)c(N(C)C(C)=O)c1 | 75.5 to 76.5 °C |
| CCOP(=S)(OCC)N1C(=O)c2ccccc2C1=O | 81 to 83 °C |
| CC1(C)Cc2ccc(C#N)cc2N(C(=O)Nc2cccnc2)C1 | 164 to 166 °C |
| C=CCn1c(=O)n(-c2ccc3c(c2)OCO3)c2ncccc21 | 100 °C |
| COC(=O)[C@H](CSSC[C@H](NC(=O)[C@@H]1CCC(=O)N1)C(=O)OC)NC(=O)[C@@H]1CCC(=O)N1 | 160 to 162 °C |
| CC1(CCl)COC(N)=N1 (centres undefined) | 61 to 62 °C |
| CC(=NNc1ccc(C2=NNC(=O)CC2C)cc1)c1ccc(O)cc1O (centres undefined) | 259 to 261 °C |
| COc1ccc2c(Cc3c(Cl)cncc3Cl)nn3nnnc3c2c1 | 275 to 276 °C |
| O=c1[nH]c(-c2ccccc2Br)nc2c1CCCC2 | 193 °C |
| O=S1(=O)NC2CCCN2c2ccc(Oc3ccc(Cc4nnn[nH]4)cc3)cc21 (centres undefined) | 209 to 212 °C |
| CC(C)(C)C(=O)Nc1ccc2oc3c(c2c1)CCCCC3 | 208 to 209 °C |
| CS(=O)(=O)NC(=O)c1cccc([N+](=O)[O-])c1 | 175 to 178 °C |
| N#Cc1cc(-c2ccncc2)c[nH]c1=O | > 300 °C |
| CCC(C)Oc1nc(N)nc2c1ncn2C1C=CC(CO)C1 (centres undefined) | 159 to 161 °C |
| Cn1cc(-c2ccc3nnc(C(F)(F)c4ccc5ncccc5c4)n3n2)cn1 | 200 °C |
| C[C@@H](n1ncn(-c2ccc(-n3ccnn3)cc2)c1=O)[C@](O)(Cn1cncn1)c1ccc(F)cc1F | 219 to 220 °C |
| COc1nc(OC)nc(C2CC2)n1 | 68 to 70 °C |
| CCSc1noc(-c2ccc(NS(C)(=O)=O)c(Oc3ccc(F)cc3F)c2)n1 | 116 to 119 °C |
| O=C1NCCC1=Cc1ccc(C2=NCCO2)cc1 | 258 to 262 °C |

| SMILES | melting point |
| --- | --- |
| CN(C1CCN(CC(C)(C)O)CC1)S(=O)(=O)c1ccc(Nc2nccc(Nc3ccc(F)c(F)c3)n2)cc1 | 234 to 235 °C |
| Cc1sc2c(Br)c3ccccc3c(-c3ccc(O)cc3)c2c1C | 165 to 168 °C |
| CC(=O)NC[C@H]1CN(c2ccc(C=C(Br)Br)c(F)c2)C(=O)O1 | 177 to 179 °C |
| CN1CCC(c2c[nH]c3cc(NC(=N)c4cccs4)ccc23)C1 (centres undefined) | 89 to 91 °C |
| CCc1ccc(S(=O)(=O)CC#N)cc1 | 120 to 121 °C |
| CCOC(=O)c1nn(-c2ccc(Cl)cc2)c(=O)c2c(N)scc12 | 189 to 191 °C |
| CC(C)n1c(=O)n(C(=O)NCC2CCN(CC3(C(=O)O)CCC3)CC2)c2ccccc21 | 173 °C |
| COCn1c(C)nc2c(O)cc(C(=O)N(C)C)cc21 | 173 to 183 °C |
| CN(C)C=Nc1cc(Cc2c(Cl)cccc2Cl)nc(Nc2ccc(C#N)cc2)n1 | 175 to 180 °C |
| CC(=O)N(O)C(C)c1csc2ccccc12 (centres undefined) | 123 to 125 °C |
| CCOC(=O)C1=C(COC(C)=O)Nc2nc(N3CCOCC3)nc(N3CCOCC3)c2C1c1cccc(Cl)c1Cl (centres undefined) | 161 °C |
| CCOc1nsnc1S(C)(=O)=O | 94 to 95 °C |
| CCN(CC)C1=NS(=O)(=O)c2cccc(OC(F)F)c21 | 93 to 94 °C |
| COc1cc2c(cc1N)N(C)C(=O)CN(CC#N)C2 | 128 to 132 °C |
| CC(=O)OC1CSC(Oc2cncc(-c3cccnc3)c2)C(OC(C)=O)C1OC(C)=O (centres undefined) | 149 °C |
| Nc1cc(N)cc(O)c1 | 168 to 170 °C |
| O=C1Nc2ccccc2C(c2ccccc2)=NC1NC(=S)c1cccc(C(F)(F)F)c1 (racemic) | 230 to 232 °C |
| CCCc1c(OC2CCCOC2)ccc2c(O)cc(=O)oc12 (centres undefined) | 163 to 165 °C |
| CC(=O)C1CNCc2c1[nH]c1cnc3cc(Cl)ccc3c21 (centres undefined) | 235 to 237 °C |

| SMILES | melting point |
| --- | --- |
| COc1ccc(N)c(SSc2cc(OC)ccc2N)c1 | 78 to 80 °C |
| CC(NC(=O)c1c(Cl)ccnc1Cl)c1ncc(C(F)(F)F)cc1Cl (single isomer, unassigned; (+)) | 110 to 111 °C |
| CCCCCCCCCCCCCCCCSCC(CNS(=O)(=O)CCCI)NC(=O)OCCCC (centres undefined) | 82 to 83 °C |
| O=C1CCCC(=O)N1c1cc(Br)cc(Br)c1 | 152 to 154 °C |
| CCCCOc1ncc(C(=O)N[C@@H]2CCCC[C@H]2O)cc1-c1cc(C(F)(F)F)ccc1F | 172 to 178 °C |
| Cc1cc2c(cc1-n1c(C)ccc1C)OC(=O)C2C (centres undefined) | 94 to 95 °C |
| CC(C)S(=O)(=O)N1CCN(Cc2ccc(COc3cccc4c3CN(C3CCC(=O)NC3=O)C4=O)cc2)CC1 (centres undefined) | 233 to 235 °C |
| CCCc1c(OS(=O)(=O)N(C)C)cc2oc3cc(Cl)cn3c(=O)c2c1O | 159 to 160 °C |
| CC(=O)NCCC1=CCc2ccc3c(c21)CCO3 | 153 to 155 °C |
| CCOC(=O)C1=CC2(CCC1S(=O)(=O)Nc1ccc(F)cc1Cl)OC1COCC1O2 (centres undefined) | 227 to 228 °C |
| Cn1c(C(C)(C)C)cn(N=Cc2cccnc2)c1=O | 116 to 121 °C |
| Nc1ccc(Sc2cnc3cc(Cl)ccc3n2)cc1 | 144 to 147 °C |
| COc1cc(NC(=O)NC2CC(O)CC2N2CCC(Cc3ccc(Cl)cc3)CC2)cc(OC)c1OC (centres undefined) | 81 to 84 °C |
| COc1ccccc1NC1c2cc(NC(=O)CC(C)(C)C)c(C)c(C)c2OC1(C)C (centres undefined) | 184 to 185 °C |
| O=C(CCN1CCC2(CC1)OC(=O)c1ccccc12)c1ccccc1 | 108 to 110 °C |
| CC(=O)S[C@@H](CC1CCCCC1)C(=O)O | 159 to 161 °C |
| CC(C)(C)NCC(O)c1cc(Cl)c(NC(=O)NC(C)(C)C)c(Cl)c1 (centres undefined) | 167 to 169 °C |
| CC(=O)N(C)N(C)c1ccc(CCn2cnc3cc(-c4ccc(Cl)cc4)sc3c2=O)cc1 | 227 to 228 °C |

Next, values leading:

| melting point | SMILES |
| --- | --- |
| 156 °C | COc1cc(-c2cc3ccccc3[nH]2)ccc1OS(=O)(=O)c1ccccc1 |
| 176 to 177 °C | O=C(NCCCn1cncn1)c1ccc([N+](=O)[O-])o1 |
| 142 to 144 °C | Clc1cc(CBr)c2noc(-c3ccccc3)c2c1 |
| 207 to 208 °C | COc1cc(O)ccc1-c1cnc2cnc(-c3ccc(O)cc3)nc2c1 |
| 117 °C | CCOC(=O)c1cnn2c(-c3cccc(N(CC)C(=O)OC)c3)ccnc12 |
| 158 to 160 °C | O=C(NCCCCCNC(=O)c1ccc2c(c1)OCO2)c1ccc2c(c1)OCO2 |
| 203 to 231 °C | O=C(Nc1ccc(C(=O)N2Cc3ccccc3Cc3ccccc32)cc1)c1cc(Cl)ccc1Cl |
| 134 to 135 °C | COc1ccc(NC(=O)Cc2ccc(Cl)cc2)c(OC)c1 |
| 80 to 83 °C | Nc1ccc(Cc2ccccc2)cc1[N+](=O)[O-] |
| 218 to 219 °C | FC(F)(F)c1cc(OCc2ccc(-c3ccccc3-c3nnn[nH]3)cc2)c2c(n1)CCCC2 |
| 92 to 95 °C | O=Cc1c(Cl)nc(-c2ccccc2)n1Cc1ccc(Br)cc1 |
| 68 to 72 °C | COc1ccc2c(c1)c(Cc1nc(-c3csc4ccccc34)cs1)c(C)n2C(=O)c1ccc(Cl)cc1 |
| 112 to 113 °C | O=C(CC(C[N+](=O)[O-])c1ccccc1)c1ccc(O)cc1 (centres undefined) |
| 183 to 185 °C | CC(C)N(CCCCS(=O)(=O)CC(=O)O)c1cnc(-c2ccccc2)c(-c2ccccc2)n1 |
| 212 to 213 °C | O=C1N[C@H](Cc2ccc(C(F)(F)F)cc2)[C@H](c2ccncc2)O1 (racemic) |
| 48 °C | COC(C)(OC)C(=O)CCCCCCOc1ccc(-c2ccccc2)cc1 |
| 63 to 65 °C | N#Cc1ccc(OCc2ccsc2)cc1F |
| 166 to 167 °C | CCOC(=O)c1c(Cn2cncn2)nc2sc3ccncc3c2c1-c1ccc(OC)c(OC)c1 |
| 90 to 92 °C | CC(C)(C)c1ccc(OCC(O)CN2CCCC3(CSC4=C(O3)c3ccccc3C(=O)C4=O)C2)cc1 (centres undefined) |
| 54 to 55 °C | CCCCCCCN(CC)C(=O)CCCc1ccc(NS(C)(=O)=O)cc1 |
| 153 to 155 °C | CC(C)c1cccc(C(C)C)c1NC(=O)N(Cc1ccccc1)CC(c1ccccc1)c1ccccc1 |
| 208 to 209 °C | S=c1n(CNc2ccc(Br)cc2)nc(-c2ccncc2)n1-c1ccccc1 |

| melting point | SMILES |
| --- | --- |
| 95 to 98 °C | COC(=O)CCCCc1cc2cc(Cl)ccc2n1S(=O)(=O)c1ccccc1 |
| 61 to 63 °C | O=C(CCCCCCOc1ccccc1)c1nnc(COCc2ccccc2)o1 |
| 70 °C | CN1CCC(OC2c3ccccc3CCn3c2nc(-c2ccccc2)c3C=O)CC1 (centres undefined) |
| 201 to 203 °C | CC(=O)NCc1ccc2oc([N+](=O)[O-])c(-c3ccccc3)c2c1 |
| 148 to 150 °C | CC(C)CSc1cc(C(=O)O)cc(N)c1Oc1ccccc1 |
| 158 °C | Oc1ccc2c(c1)SCCc1c-2n(CCCCCN2CCCC2)c2ccccc12 |
| 136 to 137 °C | COc1ccc(CC2C(=O)N(Cc3ccccc3)c3ccccc3N=C2C)cc1 (centres undefined) |
| > 280 °C | Oc1ccc(-c2nnnc(-c3cccc4ccccc34)c2-c2ccc(O)cc2O)c(O)c1 |
| 175 to 177 °C | CNC(=O)Cc1ncc2c(n1)-c1ccc(Cl)cc1C(c1ccccc1F)=NC2 |
| 176 to 178 °C | COc1cccc2c1Sc1c(OC)cccc1C2(CCOS(C)(=O)=O)CCOS(C)(=O)=O |
| 156 to 158 °C | CCC1CCCCN1CC(=O)NN=Cc1c(-c2ccccc2)nn2ccccc12 (centres undefined) |
| 225 to 227 °C | O=c1c2cc(Cl)ccc2nc2n1CCC2=Cc1ccccc1 |
| 149 to 151 °C | O=c1c(-c2ccccc2)cc(Cl)c2n1C=CSc1ccsc1-2 |
| 225 to 228 °C | Cc1nc(N2CCN(Cc3cccc4cccnc34)C2=O)sc1C(=O)NCc1cccnc1 |
| 74 to 75 °C | COc1ccccc1CC(O)(Cc1cccs1)C(C)(C)C (centres undefined) |
| 161 to 163 °C | COC(=O)CS(=O)C(C)c1ccc(-c2ccccc2)c(F)c1 (centres undefined) |
| 166 to 168 °C | CCCc1nc2c(N)nc3cc(OCCCNS(C)(=O)=O)ccc3c2n1CC(C)C |
| 170 to 175 °C | CCP(=O)(OC)C(O)C(CC1CCCCC1)NC(=O)[C@H](CC(C)C)NC(=O)CCc1ccccc1 (some centres undefined) |
| 163 to 164 °C | CC(C)n1nc(-c2c(Nc3ccccn3)nc(N)nc2-c2ccccc2)ccc1=O |
| 68 °C | CCCCCCCCc1ncc(-c2ccc(OC(=O)[C@H]3CCCO3)cc2)cn1 |
| 154 °C | COc1ccc2cccc(CCN3C(=O)c4ccccc4C3=O)c2c1 |
